Data: US9550802B2, “Anti-inflammatory macrolides” (priority 2012, dated 2017)

Columns and labels:
[1] = tested on: CF human primary airway epithelial cells (CF hAEC); experiment: Stimulation of chloride release (Cl efflux, SPQ fluorescence) in cystic fibrosis cells; type: cell-based; conditions: 10 μM; CF hAEC or non-CF (S9) cells
Method: CF human primary airway epithelial cells (CF hAEC) on non-CF (S9) were cultured in the presence of compound 1 or azithromycin 10 μM. Cl efflux was monitored by fluorescence of [6-methoxy-N-(3-sulfopronyl)-quinolinium (SPQ).

[2] = Titration of macrolide with organic acid in saline; type: physicochemical; conditions: for Vol. Added (mL) Score = 4: acid solution 10 mg/mL in saline added until fully dissolved; for End conc. macrolide: after titration
Method: After each addition, the mixture or solution was placed in the ultrasonic bath for 10 minutes followed by agitation for an additional 10 minutes. The mixtures were given a visual score depending on the presence of precipitate in the mixture (0 to 4, 0 being undissolved and 4 being fully-dissolved) and the pH of the supernatant fluid was measured.

[3] = Maximum solubility determination of organic salts in saline; type: physicochemical; conditions: for Visual Score: score 0 to 4
Method: The mixtures were given a visual score depending on the presence of precipitate in the mixture (Score ranges from 0 to 4, with 0 showing undissolved solid precipiate and 4 being fully-dissolved). Solubility of the salts was tested in 10 mM, 100 mM, 500 mM and 1M.

[4] = macrolide (not named) + acid equivalent of organic acid in saline, 100 mM
[5] = macrolide (not named) + acid equivalent of organic acid in saline, 500 mM
[6] = macrolide (not named) + acid equivalent of organic acid in saline, 1M

Row | Amt acid added to dissolve ([2]; 10 mM COMPOUND 1 in saline) [mg] | Amt corr. to mol eq. ([2]; 10 mM COMPOUND 1 in saline) [mg] | mol. eq. acid (minimum mole equivalence of acid needed to dissolve) ([2]; 10 mM COMPOUND 1 in saline) [mol. eq.] | Vol. Added (mL) Score = 4 ([2]; 10 mM COMPOUND 1 in saline) [mL] | End conc. macrolide ([2]; COMPOUND 1 in saline) [mM] | End conc. macrolide ([2]; azithromycin in saline) [mM] | Amt acid added to dissolve ([2]; azithromycin, 10 mM in saline) [mg] | Amt corr. to mol eq. ([2]; azithromycin, 10 mM in saline) [mg] | mol. eq. acid (minimum mole equivalence of acid needed to dissolve) ([2]; azithromycin, 10 mM in saline) [mol. eq.] | Vol. Added (mL) Score = 4 ([2]; azithromycin, 10 mM in saline) [mL] | pH ([3]; macrolide (not named) + acid equivalent of organic acid in saline (0.9% aq. NaCl), 10 mM) | Visual Score ([3]; macrolide (not named) + acid equivalent of organic acid in saline, 10 mM) | pH [3, 4] | Visual Score [3, 4] | pH [3, 5] | Visual Score [3, 5] | pH [3, 6] | Visual Score [3, 6] | SMILES | Cl efflux as determined by fluorescence change (SPQ) [1]
1 | – | – | – | – | – | – | – | – | – | – | – | – | – | – | – | – | – | – | CC[C@H]1OC(=O)[C@H](C)[C@@H](O[C@H]2C[C@@](C)(OC)[C@@H](O)[C@H](C)O2)[C@H](C)[C@@H](O[C@@H]2O[C@H](C)C[C@H](N(C)C)[C@H]2O)[C@](C)(O)C[C@@H](C)CN(C)[C@H](C)[C@@H](O)[C@]1(C)O [azithromycin] | stimulate Cl efflux
2 | 4.00 | 4.00 | 0.64 | 0.40 | 9.2 | 8.7 | 8.00 | 8.00 | 1.10 | 0.80 | – | – | – | – | – | – | – | – | O=C(O)CC(=O)C(=O)O [oxaloacetatic acid] | –
3 | 8.30 | 8.30 | 1.05 | – | 10.0 | 10.0 | 6.70 | 6.70 | 0.70 | – | 6.8 | 4 | 5.5 | 4 | 8.0 | 4 | 10.0 | 2 | O=C(O)CCCCCCC(=O)O [subaric acid] | –
